The values that follow come from US20060293307A1, “Oxazolidinone derivatives as antimicrobials” (priority 2002, published 2006).

One test has as its system M. tuberculosis 35801. Briefly: MIC against M. tuberculosis strains, agar dilution. It counts as cell-based, Mycobacterium tuberculosis. The conditions noted are these: S. No. 02 Mt-, Middle Brook 7H10 + OADC, 37° C., 14-21 days. Background: In agar dilution the substance is mixed into plates at graded concentrations.
Another test deals with M. tuberculosis V-591. Briefly: MIC against M. tuberculosis strains, agar dilution. In kind it is cell-based, Mycobacterium tuberculosis. The conditions noted are these: Middle Brook 7H10 + OADC, 37° C., 14-21 days.
In test [1] the test system is M. tuberculosis PC. As to the kind of experiment: MIC against M. tuberculosis strains, agar dilution. In kind it is cell-based, Mycobacterium tuberculosis. Conditions: S. No. 16 Mt-, Middle Brook 7H10 + OADC, 37° C., 14-21 days.
The subject of test [2] is M. tuberculosis PC. As to the kind of experiment: MIC against M. tuberculosis strains, agar dilution. It counts as cell-based, Mycobacterium tuberculosis. The conditions noted are these: S. No. 18 Mt-, Middle Brook 7H10 + OADC, 37° C., 14-21 days.
The next test relates to M avium ATCC 25291. As to the kind of experiment: MIC against MAC strains, agar dilution. Conditions: S. No. 02 Ma-2, M avium ATCC 25291; Middle Brook 7H10 + OADC, 37° C., 14-21 days. In kind it is cell-based, Mycobacterium avium.
Another test has as its system M. avium ATCC 1723. Briefly: MIC against MAC strains, agar dilution. In kind it is cell-based, Mycobacterium avium. Conditions: S. No. 03 Ma-3, M. avium ATCC 1723; Middle Brook 7H10 + OADC, 37° C., 14-21 days.
A further test concerns S. aureus ATCC29213. Briefly: MIC, agar incorporation method. It counts as cell-based, Staphylococcus aureus.
In a further test the test system is S. aureus SG 511. As to the kind of experiment: MIC, agar incorporation method. In kind it is cell-based, Staphylococcus aureus.
The subject of a further test is S. aureus (MRSA) 15187. Briefly: MIC, agar incorporation method. It counts as cell-based, Staphylococcus aureus.
In the next test the test system is S. aureus (MRSA) ST450. Briefly: MIC, agar incorporation method. It counts as cell-based, Staphylococcus aureus.
For a further test, the system named is S. aureus (Smith 49951). Briefly: MIC, agar incorporation method. It counts as cell-based, Staphylococcus aureus.
The test system of test [3] is S. epidermidis ATCC 12228. Briefly: MIC, agar incorporation method. It counts as cell-based, Staphylococcus epidermidis.
Test [4] deals with S. epidermidis (MRSE) 23760. As to the kind of experiment: MIC, agar incorporation method. In kind it is cell-based, Staphylococcus epidermidis.
Test [5] has as its system S. epidermidis (MRSE)32965. As to the kind of experiment: MIC, agar incorporation method. In kind it is cell-based, Staphylococcus epidermidis.
Another test concerns E. faecalis 29212. As to the kind of experiment: MIC, agar incorporation method. In kind it is cell-based.
A further test deals with E. faecalis 21777. As to the kind of experiment: MIC, agar incorporation method. In kind it is cell-based.
In test [6] the test system is Serratia marcescens 12999. Briefly: MIC, agar incorporation method. It counts as cell-based.
The subject of a further test is S. pneumoniae AB-2. As to the kind of experiment: MIC, agar incorporation method. It counts as cell-based, Streptococcus pneumoniae.
The next test deals with S. pneumoniae AB 10. Briefly: MIC, agar incorporation method. In kind it is cell-based, Streptococcus pneumoniae.
A further test relates to S. pneumoniae AB 31. Briefly: MIC, agar incorporation method. In kind it is cell-based, Streptococcus pneumoniae.
For the next test, the system named is S. pneumoniae AB 17. Briefly: MIC, agar incorporation method. In kind it is cell-based, Streptococcus pneumoniae.
For another test, the system named is S. pneumoniae AB 21. Briefly: MIC, agar incorporation method. It counts as cell-based, Streptococcus pneumoniae.
The test system of the next test is S. pneumoniae CS 1687. Briefly: MIC, agar incorporation method. It counts as cell-based, Streptococcus pneumoniae.
In a further test the test system is S. pneumoniae AB 25. Briefly: MIC, agar incorporation method. In kind it is cell-based, Streptococcus pneumoniae.
The subject of a further test is S. pneumoniae AB 29. Briefly: MIC, agar incorporation method. It counts as cell-based, Streptococcus pneumoniae.
The next test deals with S. pneumoniae ATCC 6303. Briefly: MIC, agar incorporation method. In kind it is cell-based, Streptococcus pneumoniae.
The subject of the next test is S. pyogenes 19615. As to the kind of experiment: MIC, agar incorporation method. In kind it is cell-based, Streptococcus pyogenes.
A further test concerns S. pyogenes 25147. Briefly: MIC, agar incorporation method. It counts as cell-based, Streptococcus pyogenes.
A further test deals with Moraxella M1. Briefly: MIC, agar incorporation method. In kind it is cell-based.
A further test concerns Moraxella cata. M2. As to the kind of experiment: MIC, agar incorporation method. In kind it is cell-based.
Another test has as its system H. influenzae 451. As to the kind of experiment: MIC against Haemophilus strains. In kind it is cell-based. Conditions: s. No. 8, H. influenzae 451.
Where [7] appears, read: Staphylococcus epidermidis, MRSE.
Where [8] appears, read: Mycobacterium tuberculosis, read-out: MIC.

≈ marks a conversion by molar mass, not a printed value. Where two headings read alike, the source gives them in different places.

In the case of `CC[C@H]1OC(=O)[C@H](C)[C@@H](O[C@H]2C[C@@](C)(OC)[C@@H](O)[C@H](C)O2)[C@H](C)[C@@H](O[C@@H]2O[C@H](C)C[C@H](N(C)C)[C@H]2O)[C@](C)(OC)C[C@@H](C)C(=O)[C@H](C)[C@@H](O)[C@]1(C)O` [CLA], the MIC in the test on M. tuberculosis 35801 was more than 32 mg/L; in the test with M. tuberculosis V-591 (S. No. 13 Mt-) it was 32 mg/L; with M. tuberculosis PC [1], 8.0 mg/L; in the test on M. tuberculosis PC [2], 32 mg/L; in the test with M avium ATCC 25291 it was 8.0 mg/L; in the test with M. avium ATCC 1723, 1.0 mg/L.
On to `CCc1cc(C(N)=S)ccn1` [ETH], for which the MIC with M. tuberculosis 35801 is 2.0 mg/L; with M. tuberculosis V-591 (S. No. 13 Mt-), more than 32 mg/L; in the test with M. tuberculosis PC [1], 32 mg/L; with M. tuberculosis PC [2], 1.0 mg/L; in the test with M avium ATCC 25291, 32 mg/L; in the test on M. avium ATCC 1723 it was 16 mg/L.
Consider `NNC(=O)c1ccncc1` [INH], for which the MIC in the test on M. tuberculosis 35801 was 0.06 mg/L; with M. tuberculosis V-591 (S. No. 13 Mt-) it was more than 32 mg/L; in the test on M. tuberculosis PC [1], 8.0 mg/L; with M. tuberculosis PC [2] it was 0.25 mg/L; in the test on M avium ATCC 25291 it was more than 32 mg/L; in the test with M. avium ATCC 1723, 32 mg/L.
On to `CC(=O)NC[C@H]1CN(c2ccc(N3CCOCC3)c(F)c2)C(=O)O1` [Linezolid, reference compound], for which the MIC was 2 mg/L (≈ 5.93 µM) with S. aureus ATCC29213 (Staphylococcus aureus, ATCC29213); 2 mg/L (≈ 5.93 µM) against S. aureus SG 511 (Staphylococcus aureus, SG511); 2 mg/L (≈ 5.93 µM) in the test on S. aureus (MRSA) 15187 (Staphylococcus aureus, MRSA); 1 mg/L (≈ 2.96 µM) in the test with S. aureus (MRSA) ST450 (Staphylococcus aureus, MRSA); 1 mg/L (≈ 2.96 µM) against S. aureus (Smith 49951) (Staphylococcus aureus); less than 0.5 mg/L in test [3] (Staphylococcus epidermidis, ATCC12228). Moreover, the MIC was 1 mg/L (≈ 2.96 µM) in test [4] (setting [7]); 1 mg/L (≈ 2.96 µM) in test [5] (setting [7]); 2 mg/L (≈ 5.93 µM) in the test on E. faecalis 29212 (Enterococcus faecalis, 29212); 2 mg/L (≈ 5.93 µM) against E. faecalis 21777 (Enterococcus faecalis, 21777); more than 16 mg/L in test [6] (Serratia marcescens, 12999); 0.25 mg/L (≈ 0.741 µM) against S. pneumoniae AB-2 (Streptococcus pneumoniae, AB2). Further, the MIC in the test on S. pneumoniae AB 10 (Streptococcus pneumoniae, AB10) amounted to 0.25 mg/L (≈ 0.741 µM); against S. pneumoniae AB 31 (Streptococcus pneumoniae, AB31), 1 mg/L (≈ 2.96 µM); in the test with S. pneumoniae AB 17 (Streptococcus pneumoniae, AB17) it was 1 mg/L (≈ 2.96 µM); in the test on S. pneumoniae AB 21 (Streptococcus pneumoniae, AB21), 1 mg/L (≈ 2.96 µM); in the test on S. pneumoniae CS 1687 (Streptococcus pneumoniae, CS1687), 1 mg/L (≈ 2.96 µM); in the test with S. pneumoniae AB 25 (Streptococcus pneumoniae, AB25), 1 mg/L (≈ 2.96 µM). Besides, the MIC was determined as 1 mg/L (≈ 2.96 µM) with S. pneumoniae AB 29 (Streptococcus pneumoniae, AB29); 1 mg/L (≈ 2.96 µM) with S. pneumoniae ATCC 6303 (Streptococcus pneumoniae, ATCC6303); 1 mg/L (≈ 2.96 µM) with S. pyogenes 19615 (Streptococcus pyogenes, 19615); 1 mg/L (≈ 2.96 µM) in the test with S. pyogenes 25147 (Streptococcus pyogenes, 25147); 4 mg/L (≈ 11.9 µM) in the test with Moraxella M1 (Moraxella, M1); 4 mg/L (≈ 11.9 µM) in the test with Moraxella cata. M2 (Moraxella, CATA.M2). Besides, the MIC in the test with H. influenzae 451 (Haemophilus influenzae, read-out: MIC) is 16 mg/L (≈ 47.4 µM); in the test on M. tuberculosis 35801 (setting [8]), 1 mg/L; in the test with M. tuberculosis V-591 (Mycobacterium tuberculosis, V591, S. No. 13 Mt-, read-out: MIC) it was more than 32 mg/L; in the test on M. tuberculosis PC [1] (setting [8]), 32 mg/L; in the test with M. tuberculosis PC [2] (setting [8]), 0.5 mg/L.
As to `CO[C@H]1/C=C/O[C@@]2(C)Oc3c(C)c(O)c4c(O)c(c(/C=N/N5CCN(C)CC5)c(O)c4c3C2=O)NC(=O)/C(C)=C\C=C\[C@H](C)[C@H](O)[C@@H](C)[C@@H](O)[C@@H](C)[C@H](OC(C)=O)[C@@H]1C` [RIF], the MIC is 0.5 mg/L with M. tuberculosis 35801; more than 32 mg/L in the test on M. tuberculosis V-591 (S. No. 13 Mt-); 4.0 mg/L in the test on M. tuberculosis PC [1]; more than 32 mg/L in the test with M avium ATCC 25291; 1.0 mg/L in the test on M. avium ATCC 1723.
Take `C[C@@H]1CN(c2c(F)c(N)c3c(=O)c(C(=O)O)cn(C4CC4)c3c2F)C[C@H](C)N1` [SPAR]: the MIC result was “≦0.125 μg/ml” in the test with M. tuberculosis 35801; 2.0 mg/L with M. tuberculosis V-591 (S. No. 13 Mt-); 2.0 mg/L with M. tuberculosis PC [1]; “≦0.125 μg/ml” in the test on M. tuberculosis PC [2]; 32 mg/L in the test with M avium ATCC 25291; 4.0 mg/L in the test with M. avium ATCC 1723.
Consider “(S)—N-[[3-[-3-Fluoro-4-[(5-nitro-2-thienyl)-3-methyl-1-piperazinyl]phenyl]-2-oxo-5-oxazolidinyl]methyl]acetamide [Compound No. 10]”, for which the MIC was found to be 1 mg/L against S. aureus ATCC29213 (S. No. 2, S. aureus ATCC29213); 0.5 mg/L with S. aureus SG 511 (S. No. 3, S. aureus SG 511); 1 mg/L against S. aureus (MRSA) 15187 (S. No. 4, S. aureus (MRSA) 15187); 1 mg/L with S. aureus (MRSA) ST450 (S. No. 6, S. aureus (MRSA) ST450); 1 mg/L with S. aureus (Smith 49951) (S. No. 9, S. aureus (Smith 49951)); 0.25 mg/L in [3] (S. No. 10, S. epidermidis ATCC 12228). The MIC in test [4] (S. No. 11, S. epidermidis (MRSE) 23760) was 0.5 mg/L; in [5] (S. No. 13, S. epidermidis (MRSE)32965), 0.5 mg/L; in the test on E. faecalis 29212 (S. No. 17, E. faecalis 29212), 1 mg/L; in the test with E. faecalis 21777 (S. No. 18, E. faecalis 21777), 1 mg/L; in test [6] (S. No. 29, Serratia marcescens 12999), more than 8 mg/L; with S. pneumoniae AB-2 (S. No. 31, S. pneumoniae AB-2) it was 0.5 mg/L. In addition, the MIC was 0.25 mg/L in the test on S. pneumoniae AB 10 (S. No. 35, S. pneumoniae AB 10); 0.5 mg/L in the test with S. pneumoniae AB 31 (S. No. 36, S. pneumoniae AB 31); 0.5 mg/L in the test with S. pneumoniae AB 17 (S. No. 40, S. pneumoniae AB 17); 0.5 mg/L in the test on S. pneumoniae AB 21 (S. No. 41, S. pneumoniae AB 21); 0.5 mg/L against S. pneumoniae CS 1687 (S. No. 44, S. pneumoniae CS 1687); 0.5 mg/L in the test on S. pneumoniae AB 25 (S. No. 45, S. pneumoniae AB 25). The MIC in the test with S. pneumoniae AB 29 (S. No. 46, S. pneumoniae AB 29) is 0.5 mg/L; with S. pneumoniae ATCC 6303 (S. No. 50, S. pneumoniae ATCC 6303), 0.5 mg/L; in the test on S. pyogenes 19615 (S. No. 51, S. pyogenes 19615), 0.5 mg/L; with S. pyogenes 25147 (S. No. 52, S. pyogenes 25147) it was 0.5 mg/L; with Moraxella M1 (S. No. 58, Moraxella M1) it was 2 mg/L; with Moraxella cata. M2 (S. No. 59, Moraxella cata. M2), 2 mg/L. This compound also returned an MIC in the test on H. influenzae 451 of more than 16 mg/L.
